Where two headings read alike, the source gives them in different places. Some results are limits rather than exact numbers.

The target of experiment [1] is T1, recombinant human Lp-PLA2 (Homo sapiens, UniProt Q13093).
T1 sequence (Q13093 22-441): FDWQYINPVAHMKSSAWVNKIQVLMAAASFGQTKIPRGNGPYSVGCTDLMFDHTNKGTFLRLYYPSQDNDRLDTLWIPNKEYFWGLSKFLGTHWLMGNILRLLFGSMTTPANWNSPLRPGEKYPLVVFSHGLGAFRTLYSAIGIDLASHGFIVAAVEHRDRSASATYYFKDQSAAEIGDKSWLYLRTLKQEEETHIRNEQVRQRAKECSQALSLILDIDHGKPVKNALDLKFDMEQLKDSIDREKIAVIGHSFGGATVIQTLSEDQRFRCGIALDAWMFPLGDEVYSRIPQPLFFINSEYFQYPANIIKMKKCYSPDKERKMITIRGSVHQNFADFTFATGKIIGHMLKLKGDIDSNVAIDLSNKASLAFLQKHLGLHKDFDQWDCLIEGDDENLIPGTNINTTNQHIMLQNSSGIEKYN
The experiment is described as follows: Recombinant human Lp-PLA2 assay (rhLp-PLA2, PED6 assay). In kind it is biochemical. To be noted: upper limit for pIC50 in this assay is 9.3. From the text:
(1) Recombinant Human Lp-PLA2 Assay (rhLp-PLA2) (Also Referred to as “PED6” Assay)
N-((6-(2,4-dinitrophenyl)amino)-hexanoyl)-2-(4,4-difluoro-5,7-dimethyl-4-bora-3a,4a-diaza-s-indacene-3-pentanoyl)-1-hexadecanoyl-sn-glycero-3-phosphoethanolamine, triethylammonium salt (PED6) is a commercially available fluorescently-labeled phospholipid, which is commercially available from Invitrogene and Molecular Probes. There is a quenching […] and a Bodipy fluorescein (FL) group in the sn2 position. Upon cleavage with Lp-PLA2, the Bodipy FL group is liberated and then may result in an increase in fluorescence. Inhibitors of Lp-PLA2 therefore prevent this cleavage and no fluorescent increase is observed.
The PED6 assay was run as an unquenched 10 μL assay. The source plate containing the compounds to be tested was prepared by making 1:3 (by volume) serial dilution of the compounds within DMSO on 384-well microplate. Then, 0.01 μL of the compounds on compound source plate were transferred into 384 well Greiner 784076 (black) plates using ECHO liquid dispenser. 5 μL of recombinant human Lp-PLA2 enzyme (4 nM (or 110 pM) rhLp-PLA2 in assay buffer of 50 mM HEPES, pH 7.4, 150 mM NaCl, 1 mM CHAPS) was added to each well of the plate. Plates were centrifuged for 10 sec at 500 rpm. After 30 minutes preincubation, 5 μL of substrate ([…] (or 5 μM) PED6 [from 5 mM DMSO stock] in assay buffer of 50 mM HEPES, pH 7.4, 150 mM NaCl, 1 mM CHAPS) was added to 384 well Greiner 784076 (black) plates. Plates were centrifuged for 10 sec at 500 rpm. The plate was covered to protect it from light and incubated for 20 min at room temperature. The plates were read for fluorescence intensity at ex: 480/em: 540 using ViewLux microplate imager for Envision spectrofluoroimeters pIC50 data, curve and QC analysis was conducted by using XL fit module in Excel.
The compounds described below were tested generally according to the PED6 assay described above.

In another experiment the target is T2, Lp-PLA2 in human plasma (Homo sapiens, UniProt Q13093).
T2 construct: from tissue; host or cells: pooled human plasma
T2 sequence (Q13093 22-441): T1 sequence (Q13093 22-441)
Briefly: Lp-PLA2 human plasma assay (Thio-PAF assay). In kind it is biochemical. To be noted: pooled human plasma; read-out: pIC50 values in the thio-PAF assay (converted). From the text:
The human plasma assay utilizes a thioester analog of PAF (phosphatidylcholine), where hydrolysis yields to the formation of a phospholipid containing a free thiol group. The amount of thiol is quantitated continuously by reacting with CPM (7-diethylamino-3-(4′-maleimidylphenyl)-4-methylcoumarin), a maleimide which increases in fluoresence after Michael addition of thiols. This assay may detect the activity of Lp-PLA2 in human plasma, as determined by specific inhibition by Lp-PLA2 inhibitors.
The thio-PAF assay was run as a quenched 15 μL assay. Compounds source plate was prepared by making 1:3 (by volume) serial dilution of the compounds into pure DMSO on 384-well microplate. 0.01 μL of compounds on compound source plate were transferred to 384 well Greiner 784076 (black) low-volume plates by ECHO liquid dispenser. 8 μL pooled human plasma, which was previously aliquoted and frozen, was added. Plates were centrifuged for 10 sec at 500 rpm. After 30 minutes preincubation, 2 μL of substrate solution comprising 2.5 mM 2-thio-PAF [from ethanol stock], […] CPM [from a DMSO stock] and 3.2 mM NEM (N-ethylmaleimide) [made fresh daily in DMSO] in assay buffer of 50 mM HEPES, pH 7.4, 150 mM NaCl, 1 mM CHAPS was added to 384 well Greiner 784076 (black) low-volume plates by BRAVO liquid handling station. After 2 mins, reaction was quenched with 5 μL of 5% aqueous trifluoroacetic acid (TFA). Plates were covered to protect from light and incubated for 40 min at room temperature. Plates were read at ex: 380/em: 485 using—Envision microplate reader. pIC50 data, curve and QC analysis was conducted by using XLFit module in Excel.

Where [2] appears, read: read-out: pIC50 values in the PED6 assay (converted).
[3] abbreviates: Table 1, read-out: rhLp-PLA2 (PED6 assay) (pIC50) (converted).

Turning to `N#Cc1cc(COc2cc3n(c(=O)n2)CCCN3)ccc1Oc1ccc(F)c(F)c1` [Example 94, 2-(3,4-difluorophenoxy)-5-(((6-oxo-2,3,4,6-tetrahydro-1H-pyrimido[1,6-a]pyrimidin-8-yl)oxy)methyl)benzonitrile], the results for the IC50 (in experiment [1] (setting [2]); on Lp-PLA2 in human plasma) were ≤ 1 nM and ≤ 100 nM, respectively.

In the case of `CC(C)N1CCCn2c1cc(OCc1cc(F)c(F)c(F)c1)nc2=O` [Example 42, isopropyl-8-((3,4,5-trifluorobenzyl)oxy)-3,4-dihydro-1H-pyrimido[1,6-a]pyrimidin-6(2H)-one], the results for the IC50 (in experiment [1] (setting [3]); in experiment [1] (setting [2]); on Lp-PLA2 in human plasma) were 5.01 nM, ≤ 10 nM and ≤ 100 nM, respectively.

Consider `CN1CCCn2c1cc(OCc1cc(F)c(Oc3ccc(Cl)c(F)c3)c(F)c1)nc2=O` [Example 82, 8-((4-(4-chloro-3-fluorophenoxy)-3,5-difluorobenzyl)oxy)-1-methyl-3,4-dihydro-1H-pyrimido[1,6-a]pyrimidin-6(2H)-one], for which the results for the IC50 (in experiment [1] (setting [2]); at Lp-PLA2 in human plasma) were ≤ 1 nM and ≤ 100 nM, respectively.

For the molecule `CN1CCCn2c1cc(OCc1ccc(Oc3cc(F)cc(C#N)c3)c(F)c1)nc2=O` [Example 98, 3-fluoro-5-(2-fluoro-4-(((1-methyl-6-oxo-2,3,4,6-tetrahydro-1H-pyrimido[1,6-a]pyrimidin-8-yl)oxy)methyl)phenoxy)benzonitrile], the IC50 in experiment [1] (setting [2]) is ≤ 1 nM; at Lp-PLA2 in human plasma, ≤ 100 nM.

As to `N#Cc1ccc(Oc2ccc(COc3cc4n(c(=O)n3)CCCN4)cc2C#N)cc1F` [Example 104, 4-(2-cyano-4-(((6-oxo-2,3,4,6-tetrahydro-1H-pyrimido[1,6-a]pyrimidin-8-yl)oxy)methyl)phenoxy)-2-fluorobenzonitrile], the IC50 was ≤ 1 nM in experiment [1] (setting [2]) and ≤ 100 nM at Lp-PLA2 in human plasma.

As to `CN1CCCn2c1cc(OCc1cc(F)c(Oc3cccc(F)c3)c(F)c1)nc2=O` [Example 78, 8-((3,5-difluoro-4-(3-fluorophenoxy)benzyl)oxy)-1-methyl-3,4-dihydro-1H-pyrimido[1,6-a]pyrimidin-6(2H)-one], the results for the IC50 (in experiment [1] (setting [2]); on Lp-PLA2 in human plasma) were ≤ 10 nM and ≤ 1000 nM, respectively.

Regarding `O=c1nc(OCc2cc(F)c(Oc3cccc(F)c3)c(F)c2)cc2n1CCCN2` [Example 115, 8-((3,5-difluoro-4-(3-fluorophenoxy)benzyl)oxy)-3,4-dihydro-1H-pyrimido[1,6-a]pyrimidin-6(2H)-one], the IC50 in experiment [1] (setting [2]) is ≤ 1 nM; at Lp-PLA2 in human plasma, ≤ 100 nM.

As for `CC(C)N1CCCn2c1cc(OCc1ccc(F)c(F)c1)nc2=O` [Example 40, 8-((3,4-difluorobenzyl)oxy)-1-isopropyl-3,4-dihydro-1H-pyrimido[1,6-a]pyrimidin-6(2H)-one], the IC50 is 10 nM in experiment [1] (setting [3]), ≤ 10 nM in experiment [1] (setting [2]) and ≤ 100 nM at Lp-PLA2 in human plasma.

As for `CN1CCCn2c1cc(OCc1ccc(Oc3ccc(Cl)c(Cl)c3)cc1)nc2=O` [Example 7, 8-((4-(3,4-dichlorophenoxy)benzyl)oxy)-1-methyl-3,4-dihydro-1H-pyrimido[1,6-a]pyrimidin-6(2H)-one], the values for the IC50 (in experiment [1] (setting [3]); in experiment [1] (setting [2]); at Lp-PLA2 in human plasma) were 0.794 nM, ≤ 1 nM and ≤ 100 nM, respectively.

With `CN1CCCn2c1cc(OCc1ccc(Oc3ccc(F)cc3)c(C#N)c1)nc2=O` [Example 30, 2-(4-fluorophenoxy)-5-(((1-methyl-6-oxo-2,3,4,6-tetrahydro-1H-pyrimido[1,6-a]pyrimidin-8-yl)oxy)methyl)benzonitrile], the figures for the IC50 (in experiment [1] (setting [2]); on Lp-PLA2 in human plasma) were ≤ 10 nM and ≤ 100 nM, respectively.

On to `CN1CCCn2c1cc(OCc1cc(F)c(Oc3cc(F)cc(F)c3)c(F)c1)nc2=O` [Example 79, 8-((4-(3,5-difluorophenoxy)-3,5-difluorobenzyl)oxy)-1-methyl-3,4-dihydro-1H-pyrimido[1,6-a]pyrimidin-6(2H)-one], for which the IC50 is 0.794 nM in experiment [1] (setting [3]), ≤ 1 nM in experiment [1] (setting [2]) and ≤ 100 nM on Lp-PLA2 in human plasma.

These data come from patent publication US20130030012A1, “COMPOUNDS” (Glaxo Group Limited, priority 2011, published 2013).
